According to PMC9841525, “Chemical Blockage of the Mitochondrial Rhomboid Protease PARL by Novel Ketoamide Inhibitors Reveals Its Role in PINK1/Parkin-Dependent Mitophagy” (Journal of Medicinal Chemistry, 2022):
pIC50: −log10 of the molar value. Values belong to the molecule of their own block, whether it stands above or below them. *1 amine or outer side, *2 acyl side, *3 side chain or, on linkers, in order; H or OH if unused. Where a SMILES comes first, the peptide text is derived from it. [ ]: non-standard residue; d: D form. The star is where a group is joined. X2 = O=C(C(=O)[*:2])[C@H](Cc1ccccc1)N[*:1]; NH(4-phenylbutyl) = c1ccc(CCCCN*)cc1; X1 = C[C@H](N[*:1])C(=O)C(=O)[*:2]; AMC = Cc1cc(=O)oc2cc(N*)ccc12

How the values were obtained:
Parkin [1] = assay: Parkin recruitment to mitochondria, subcellular fractionation and immunoblot; format: cell-based, human; conditions: HEK293 T-REx PINK1 cells, HA-Parkin-IRES-GFP; 5 μM compound 5, CCCP 10 μM or Antimycin A 30 μM
Method: (§1) Inducible stable Flp-In HEK293 T-REx cells expressing PINK1 were described previously.[33] HEK293 T-REx PINK1 and HEK293T cells were grown in DMEM (Gibco) supplemented with 10% (v/v) fetal bovine serum (ThermoFisher), 1% (v/v) GlutaMAX (Gibco), 1% (v/v) sodium pyruvate (Gibco), 125 μg/mL hygromycin (Invitrogen), and 10 μg/mL blasticidin (Gibco) or DMEM supplemented with 10% (v/v) fetal bovine serum, respectively, at 37 °C in 5% (v/v) CO2. For microscopy, cells were seeded on poly-L-lysine (Sigma)-coated slides. Transient plasmid transfections were performed using 25 kDa linear polyethylenimine (Polysciences). Plasmid (100 ng) encoding HA-Parkin-IRES-GFP, mito-mCherry or Parkin-mEGFP, or 500 ng plasmid encoding PGAM5-FLAG were used per 6-well. Total transfected DNA was 2 μg/well. For siRNA transfection, 2 × 10^5 cells were seeded per 6-well and on the next day transfected with 20 nM siRNA-oligonucleotide using lipofectamine RNAiMAX (ThermoFisher). Cells were analyzed 27 h post-transfection or five days post-siRNA-transfection. HEK293 T-REx PINK1 cells were induced with 0.3 μg/mL doxycycline for 24 h before further processing. Hoechst staining (1 μg/mL) was done immediately before adding treatment to the cells. Treatments were administered for the indicated times before processing; CCCP (Sigma) was always used as 10 μM for 3 h and Antimycin A (Sigma) as 30 μM for 3 h.
Unless mentioned otherwise, all steps were performed at 4 °C. For subcellular fractionation to separate cellular content into cytosolic and mitochondrial fractions, cells were washed with PBS, harvested in PBS-EDTA (1 mM EDTA, 0.2 g/L D-glucose), and centrifuged at 500 × g for 5 min. […]
For immunoblot analysis in other cases, cells were either processed as described above or washed with PBS and directly lysed with Tris-glycine SDS-PAGE sample buffer and heated for 15 min at 65 °C. […] For quantification, ImageJ was used (http://rsb.info.nih.gov/ij/). […]

Parkin [2] = assay: Parkin recruitment to mitochondria and mitochondrial morphology, fluorescence microscopy; format: cell-based, human; conditions: HEK293 T-REx PINK1 cells, 3 h; 5 μM compound 5, CCCP or Antimycin A, vs DMSO
Method: as §1
For fixation, cells were incubated for 15 min with 4% formaldehyde (16% formaldehyde diluted in PBS, Thermo Scientific) and washed in PBS. The cover glasses were mounted with Fluoromount-G (Southern Biotech) on microscope slides. […] Parkin recruitment events to the mitochondria were counted by hand throughout each z-stack and cell. […] JC-1 images were handled as summed intensity z-stack projections, as well as subjected to flatfield correction and subtraction of background before measuring the fluorescence levels normalized to the number of cell nuclei. The fluorescence intensity ratio between the red and green signal was calculated and compared to DMSO as a ratio of 1. Data were evaluated using Excel and GraphPad Prism 6.

PARL [3] = molecular target: T1, PARL (Homo sapiens, UniProt Q9H300); assay: In vitro assay for PARL activity, cleavage of AMC substrates by liposome-embedded PARL; format: biochemical; parameters: hexahistidine tag (C); made in house; host or cells: continuous-exchange cell-free expression in bacterial lysates with T7 polymerase (CUBE biotech), into liposomes; conditions: mature PARL in liposomes, S277A catalytic mutant as control
T1 sequence (Q9H300 53-379): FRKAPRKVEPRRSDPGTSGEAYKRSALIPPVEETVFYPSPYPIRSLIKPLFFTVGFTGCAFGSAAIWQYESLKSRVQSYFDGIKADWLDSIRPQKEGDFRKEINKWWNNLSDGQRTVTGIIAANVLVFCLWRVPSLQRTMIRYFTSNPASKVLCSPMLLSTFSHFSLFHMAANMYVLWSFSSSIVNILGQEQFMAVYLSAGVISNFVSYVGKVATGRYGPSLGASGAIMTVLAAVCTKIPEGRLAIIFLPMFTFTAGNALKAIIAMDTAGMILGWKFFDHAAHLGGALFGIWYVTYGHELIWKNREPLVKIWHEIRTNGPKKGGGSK
Method: Liposome preparation and cell-free protein expression of PARL were carried out essentially as described previously.[27] Liposomes resembling the lipid composition of the IMM were prepared by mixing 40% DOPC (1,2-dioleoyl-sn-glycero-3-phosphocholine), 33.8% DOPE (1,2-dioleoyl-sn-glycero-3-phosphoethanolamine), 18% CL(18:1)4 (1′,3′-bis[1,2-dioleyl-sn-glycero-3-phospho]-glycerol), 3% DOPS (1,2-dioleoyl-sn-glycero-3-phospho-L-serine), 5% soy-PI (L-α-phosphatidylinositol), and 0.2% rhodamine-PE (1,2-dioleoyl-sn-glycero-3-phosphoethanolamine-N-(lissamine rhodamine B sulfonyl)) in chloroform, followed by the evaporation of chloroform by a stream of nitrogen gas and drying in a vacuum chamber (Binder) for 1 h. […] Concentration of PARL was determined by absorption at 280 nm.
The PARL activity assay in vitro was carried out in 5 mM Tris, 5 mM Mg(OAc)2, 25 μM Zn(OAc)2, 0.1 μg/μL BSA, 30% DMSO, pH 8.0 using PARL in liposomes at 0.05 mg/mL. Compound 3 and 4 were used at 5 μM final concentration based on quantitative amino acid analysis. […] The cleavage reaction was carried out at 37 °C in 96-well black HTS plates (Greiner Bio-One) in a plate reader (Tecan Infinite M1000) with excitation and emission wavelengths set to 355 and 450 nm, respectively. Data were evaluated using Excel (Microsoft) and GraphPad Prism 9 (GraphPad Software, Inc.).

PARL [4] = molecular target: T1, PARL; assay: PARL inhibition assay in cells: cleavage of overexpressed PGAM5-Myc by tetracycline-induced PARL-FLAG, immunoblot; format: cell-based; parameters: expressed in transfected cells; host or cells: Flp-In HEK293 T-REx PARL knockout cells; conditions: Flp-In HEK293 T-REx PARL KO cells with inducible PARL-FLAG, PGAM5-Myc, mean ± SEM of four or three experiments; read-out: Apparent IC50, PGAM5 cleavage by overexpressed PARL
Method: PARL inhibition assays in cells were carried out in Flp-In HEK293 T-REx PARL knockout cells stably transfected with tetracycline inducible PARL-FLAG grown in DMEM (Gibco) supplemented with 10% (v/v) tetracycline-free fetal bovine serum (Clontech). For the inhibition assay, 0.7 × 10^6 cells were seeded per well of a 6-well plate, and the next day transfected with 5 μg of human PGAM5-Myc in pcDNA and 15 μg of branched polyethylenimine (Polysciences) per well. Four hours after transfection, the PARL expression was induced by adding tetracycline to 1 μg/mL. Eight hours after transfection, the inhibitors were added to each well in different concentrations in serum-free DMEM with 1% DMSO.
For immunoblot analysis of the effects of PARL inhibitors on PGAM5 cleavage, after overnight incubation with inhibitors, cells from each well were harvested in 1× SDS sample buffer containing 20 mM MgCl2 and Pierce universal nuclease (250 U/mL, Thermo Scientific) and heated to 65 °C for 10 min. Loading volumes for SDS-PAGE were adjusted by measuring total protein concentration in the lysates with Pierce 660 nm Protein Assay Reagent and Ionic Detergent Compatibility Reagent for Pierce 660 nm Protein Assay Reagent (Thermo Scientific). Samples were resolved by SDS-PAGE using a 12% polyacrylamide gel (Biorad) and electrotransferred onto an Immobilon PVDF membrane (Merck Millipore). Blots were blocked using casein blocker (Thermo Scientific) and hPGAM5 was labeled by rabbit anti-Myc antibody (Cell Signaling Technology, cat. #2278, dilution 1:1000) at 4 °C overnight. Blots were washed three times with TBS-T and incubated with IRDye 800 CW donkey anti-rabbit antibody (Invitrogen, cat. #SA5-10044, dilution 1:10,000) at room temperature for 2 h. Membranes were then again washed three times with TBS-T and one time with TBS. Fluorescence emission at […] of dried membranes was scanned on Odyssey CLx (LI-COR). Cleavage efficiency and inhibition were analyzed as described[23] using Image Studio Lite (LI-COR), Excel (Microsoft) and GraphPad Prism 9 (GraphPad Software, Inc.).

PARL [5] = molecular target: T1, PARL; assay: PARL inhibition in vitro, PARL in liposomes with substrate compound 4; format: biochemical; parameters: hexahistidine tag (C); made in house; host or cells: continuous-exchange cell-free expression in bacterial lysates with T7 polymerase (CUBE biotech), into liposomes; conditions: recombinant mature PARL in liposomes, 100 μM substrate compound 4, mean ± SEM of three or four measurements
Method: Liposome preparation and cell-free protein expression of PARL were carried out essentially as described previously.[27] Liposomes resembling the lipid composition of the IMM were prepared by mixing 40% DOPC (1,2-dioleoyl-sn-glycero-3-phosphocholine), 33.8% DOPE (1,2-dioleoyl-sn-glycero-3-phosphoethanolamine), 18% CL(18:1)4 (1′,3′-bis[1,2-dioleyl-sn-glycero-3-phospho]-glycerol), 3% DOPS (1,2-dioleoyl-sn-glycero-3-phospho-L-serine), 5% soy-PI (L-α-phosphatidylinositol), and 0.2% rhodamine-PE (1,2-dioleoyl-sn-glycero-3-phosphoethanolamine-N-(lissamine rhodamine B sulfonyl)) in chloroform, followed by the evaporation of chloroform by a stream of nitrogen gas and drying in a vacuum chamber (Binder) for 1 h. Dried lipids were dissolved in buffer (5 mM Tris/HCl, pH 8.5, 10 mM KOAc) and extruded 21 times through a mini extruder (Avanti Polar Lipids) using a polycarbonate membrane with a pore size of […]. […] The PARL-containing liposomes were purified by a step-wise sucrose step-gradient centrifugation (0, 15, 30, and 40% sucrose in 5 mM HEPES pH 7.5 with 25 mM NaCl) for 2 h at 200,000 × g. Soluble proteoliposomes were harvested at the 0%/15% sucrose interface after the centrifugation. Concentration of PARL was determined by absorption at 280 nm.
PARL inhibition in vitro was measured in 5 mM Tris, 5 mM Mg(OAc)2, 25 μM Zn(OAc)2, 0.1 μg/μL BSA, 10% DMSO, pH 8.0 using PARL in liposomes at 0.07 mg/mL and compound 4 at 100 μM final concentration. Inhibitor concentrations were determined by quantitative amino acid analysis. Inhibitors in DMSO were dissolved at the respective concentrations into the reaction buffer by vigorous mixing at 1000 rpm, 37 °C for 40 min and then pre-incubated with PARL in liposomes at 37° for 1 h. The cleavage reaction was started by adding compound 4 and carried out at 37 °C in 96-well black HTS plates (Greiner Bio-One). Fluorescence was read in a plate reader (Tecan Infinite M1000) with excitation and emission wavelengths set to 355 and 450 nm, respectively. Data were evaluated using Excel (Microsoft) and GraphPad Prism 9 (GraphPad Software, Inc.). The data shown are representative of at least three independent experiments.

Structure (SMILES): CCCCCC[C@H]1C(=O)O[C@H](C)[C@H](NC(=O)c2cccc(NC=O)c2O)C(=O)O[C@@H](C)[C@@H]1OC(=O)CC(C)C [Antimycin A]
- Parkin recruitment to the mitochondrial fraction (Parkin [1]): activates the PINK1/Parkin pathway
- Recruitment of Parkin-mEGFP to mitochondria (microscopy) (Parkin [2]): not significantly different from Parkin recruitment under DMSO conditions

Structure (SMILES): CC(=O)N[C@@H](C)C(=O)N[C@H](C(=O)N[C@@H](Cc1ccccc1)C(=O)N[C@@H](CC(C)C)C(=O)N[C@@H](C)C(=O)Nc1ccc2c(C)cc(=O)oc2c1)C(C)C [compound 3, AcAVFLA-4mc] (Ac-AVFLA-{AMC})
- Cleavage of substrate by liposome-embedded PARL (PARL [3]): are cleaved by liposome-embedded PARL but not its catalytic mutant

- pIC50 (PARL [4]): 5.49
- pIC50 (PARL [5]): 7.10
Structure (SMILES): CC(=O)N[C@@H](CCCNC(=N)N)C(=O)N[C@@H](CCCNC(=N)N)C(=O)N[C@@H](C)C(=O)N[C@H](C(=O)N[C@@H](Cc1ccccc1)C(=O)N[C@@H](CC(C)C)C(=O)N[C@@H](C)C(=O)C(=O)NCCCCc1ccccc1)C(C)C [compound 6] (Ac-RRAVFL[X1]-{NH(4-phenylbutyl)})

Structure (SMILES): CC[C@H](C)[C@H](NC(=O)[C@H](CCCCN)NC(=O)[C@H](Cc1ccccc1)NC(=O)[C@H](CCCNC(=N)N)NC(=O)[C@H](CCCNC(=N)N)NC(C)=O)C(=O)N[C@@H](Cc1ccccc1)C(=O)C(=O)NCCCCc1ccccc1 [compound 7] (Ac-RRFKI[X2]-{NH(4-phenylbutyl)})
- pIC50 (PARL [5]): 5.98
